According to US20220354811A1, “METHODS AND COMPOSITIONS FOR MODULATING MACROPHAGES POLARIZATION” (INSERM (INSTITUT NATIONAL DE LA SANTÉ ET DE LA RECHERCHE …, priority 2019, published 2022):

Assays:
caspase 3 = molecular target: T1, caspase 3 (Homo sapiens, UniProt P42574); experiment: Caspase 3 activity in untreated monocytes (Ac-DEVD-AMC substrate); assay type: cell-based; set-up: endogenous in cells; host or cells: primary human peripheral blood monocytes (CD14-selected, healthy donors); details: all the concentrations tested, 1 day
T1 sequence (P42574 29-175 limits assumed): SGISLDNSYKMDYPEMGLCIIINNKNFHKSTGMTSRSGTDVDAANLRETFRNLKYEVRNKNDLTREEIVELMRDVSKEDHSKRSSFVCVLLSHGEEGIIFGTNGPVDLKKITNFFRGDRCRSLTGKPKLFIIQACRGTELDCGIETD
T1 sequence (P42574 176-277 limits assumed): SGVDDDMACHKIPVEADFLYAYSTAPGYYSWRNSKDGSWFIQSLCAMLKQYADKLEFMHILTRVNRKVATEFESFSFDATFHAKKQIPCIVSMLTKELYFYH
Experimental: FIG. 3. Both Q-VD-Oph and Emricasan hamper in the same way apoptosis in untreated monocytes. […] Measures of caspase-3 (DEVD-AMC) and caspase-8 (IETD-AMC) activities. The results are expressed as A.U./mg/min and represent the mean the mean±SD of 3 independent experiments performed in triplicate.
After stimulation, cells were lysed for 30 min at 4° C. in lysis buffer (50 mM HEPES pH 8, 150 mM NaCl, 20 mM EDTA, 1 mM PMSF, 10 μg/mL leupeptin, 10 μg/mL aprotinin and 0.2% Triton X-100) and lysates were cleared at 16 000 g for 15 min at 4° C. Each assay (in triplicate) was performed with 10 μg of protein prepared from control or stimulated cells. Briefly, cellular extracts were then incubated in a 96-well plate with 0.2 mM of DEVD-AMC (Caspase-3) or IETD-AMC (Caspase-8) as substrates for various times at 37° C. Caspase activity was measured either following emission at 460 nm (excitation at 390 nm) in the presence or not of 10 μM of DEVD-CHO or IETD-CHO. Enzyme activities were expressed in arbitrary units (A.U.) per min and per mg of proteins. The same protocol was used with 0.25 units of active recombinant caspase-8 (Enzo, ALX-201-062) or -3 (Enzo, ALX-201-059) in each triplicate.

caspase-8 = caspase-8 (Homo sapiens, UniProt Q14790); experiment: Recombinant caspase-8 activity in vitro (Ac-IETD-AMC substrate); assay type: biochemical; set-up: using active recombinant proteins of caspase-8 and caspase-3; purchased Enzo life sciences ALX-201-062; details: recombinant caspase-8, Ac-IETD-AMC
Excerpt: FIG. 4. […] (A) Measures of caspase-8 activity (IETD-AMC). IETD-CHO treatment is used as positive control in the in vitro assay. The results are expressed as A.U./min and represent the mean of 3 independent experiments realized in duplicate (B) Measures of caspase-3 activity (DEVD-AMC). DEVD-CHO is used as positive control in the in vitro assay. The results are expressed as A.U./min and represent the mean of 3 independent experiments realized in duplicate. Human CSF-1 was purchased from Miltenyi (130-096-493). […] Mouse caspase-8 was from R&D Systems (AF705). HRP-conjugated rabbit anti-goat was purchased from Dako ([…]) and HRP-conjugated goat anti-rabbit was from Cell Signaling (5127). Active recombinant caspase-8 (ALX-201-062) and -3 (ALX-201-059) were from Enzo life sciences. […] Each assay (in triplicate) was performed with 10 μg of protein prepared from control or stimulated cells. […] Enzyme activities were expressed in arbitrary units (A.U.) per min and per mg of proteins. The same protocol was used with 0.25 units of active recombinant caspase-8 (Enzo, ALX-201-062) or -3 (Enzo, ALX-201-059) in each triplicate.

caspases 8, 3 and 7 = experiment: Western blot of caspase cleavage in monocytes; assay type: cell-based, human; details: for cleavage of effector caspases-3 and -7 at their specific differentiation cleavage site: monocytes treated 2 days with CSF-1; for cleavage of the zymogens of caspases 8, 3 and 7 in their active 17-20 kDa fragments: untreated monocytes without CSF-1, 24 h
Experimental: Lysates were centrifuged at 20,000 g (15 min, 4° C.) and supernatants were supplemented with concentrated loading buffer (4× Laemmli buffer). Fifty micrograms of proteins were separated and transferred following standard protocols before analysis with the chemiluminescence detection kit (GE Healthcare, RPN2105).

[1] = system: human freshly isolated monocytes; experiment: Spontaneous apoptosis of untreated monocytes cultured without CSF-1 (Annexin V staining); assay type: cell-based; details: 24 h in culture without CSF-1

Sequence of caspase-8 (Q14790 217-374 limits assumed): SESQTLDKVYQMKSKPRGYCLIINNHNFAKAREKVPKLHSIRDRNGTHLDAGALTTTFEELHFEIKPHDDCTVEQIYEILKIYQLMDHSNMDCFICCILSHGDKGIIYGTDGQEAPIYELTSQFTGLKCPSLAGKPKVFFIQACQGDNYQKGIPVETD
Sequence of caspase-8 (Q14790 385-479 limits assumed): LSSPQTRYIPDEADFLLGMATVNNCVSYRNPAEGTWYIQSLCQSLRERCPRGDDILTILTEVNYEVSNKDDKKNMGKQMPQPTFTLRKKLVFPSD

| SMILES | caspase 3 activity in untreated monocytes (caspase 3) | IC50 (caspase-8) | concentration that abrogated / fully inhibited caspase-8 activity (caspase-8) | cleavage of effector caspases-3 and -7 at their specific differentiation cleavage site (caspases 8, 3 and 7) | cleavage of the zymogens of caspases 8, 3 and 7 in their active 17-20 kDa fragments (caspases 8, 3 and 7) | concentration sufficient to abrogate Annexin V staining [1] |
| --- | --- | --- | --- | --- | --- | --- |
| C[C@H](NC(=O)C(=O)Nc1ccccc1C(C)(C)C)C(=O)N[C@@H](CC(=O)O)C(=O)COc1c(F)c(F)cc(F)c1F [Emricasan, (S)-3-((S)-2-(2-((2-(tert-Butyl)phenyl)amino)-2-oxoacetamido)propanamido)-4-oxo-5-(2,3,5,6-tetrafluorophenoxy)pentanoic acid] | efficiently inhibited | 12 nM | 0.2 µM | impaired | abrogated | 2 µM |
| CC(C)[C@H](NC(=O)c1ccc2ccccc2n1)C(=O)N[C@@H](CC(=O)O)C(=O)COc1c(F)cccc1F [Q-VD-OPh] | efficiently inhibited | ~1000 nM | 50 µM | impaired | abrogated | ≤ 5 µM |
